This is an account of results in patent US12540154B2, “Glucosamine derivative nanoparticle and preparating method and use thereof” (CPC Corporation, TAIWAN, priority 2023, dated 2026).

The subject of this data set is HaCaT cells. Kind of data set: Cell cytotoxicity test (CCK-8). The class given is cell-based, human. Conditions: 125-1,000 ppm, 24 hours, CCK-8, FIG. 6. How it is done:
HaCaT cells are seeded into a 96 well plate at 10^5 cells/well. After attachment overnight, remove culture medium. The frozen peptide (KTTKS(SEQ ID NO: 1), CRGDS(SEQ ID NO: 2), and RRRRRR(SEQ ID NO: 3)) and the glucosamine derivative nanoparticles are respectively dissolved in serum-free medium (SFM) again (final concentration 1,000 ppm). Use SFM to carry out serial dilution and get concentrations of 500 ppm, 250 ppm, and 125 ppm. Then add 100 μl samples with different concentrations into the well plate (repeat four times and a group of samples added with SFM used as control group). After being cultured for 24 hours, remove culture medium and add 10 μl CCK-8 and 100 μl PBS into each of the wells. Then react at 37° C. for 2-3 hours and read absorbance at 450 nm. Cell viability is defined as a percentage of the absorbance of the respective test groups relative to the absorbance of the control group while the cell viability of the control group is set as 100%.

As to `N[C@H]1C(O)O[C@H](CO)[C@@H](O)[C@@H]1O` (stereo partly shown) [glucosamine], the “cell viability trend with concentration” value is “reduced a bit along with the increasing glucosamine concentration”.
